According to patent US20180071280A1, “MODULATORS OF CELL DEATH PROCESSES” (URIFER LTD., priority 2015, published 2018):
“Also recorded” adds a separate entry of the source. Structures can show the parent of a compound that is named as a salt. Where two headings read alike, the source gives them in different places.

Columns and labels:
[1] = tested on: AMPK-mTOR signaling pathway; experiment: WB of AMPK-mTOR signaling pathway phosphorylation in CC cells; type: cell-based, human
Procedure: (§1) WB analyses were carried out as previously described before. In brief, cells were lysed in RIPA buffer mixed with protease inhibitors and separated on SDS-PAGE gel, transferred to PVDF membrane treated with 5% skim milk to exclude non-specific background and incubated with a primary antibody over-night. The membrane was incubated for 1 h with a secondary antibody conjugated to Horseradish Peroxidase (HRP). The protein-antibody complex was visualized using the SuperSignal West Pico Chemiluminescent Substrate (Thermo scientific, USA).

[2] = Toxicological and histopathological studies in mice; type: in vivo
Procedure: All animal experiments were performed according to the guidelines of the Institutional Animal Care and Use Committee of the Bar-Ilan University. Nude mice (Harlan, Israel) were transferred from ad libitum diet to a more strict diet 2 days before inoculation to lower blood glucose levels, and housed one per cage to ensure an even consumption of food. The diet was comprised of 3 g/mouse/day of standard chow, given at the same time every day. The food was consumed within an average time of 2 hours, consequently the mice were kept without food for the next 22 hours until the daily ration. The mice were kept on this diet throughout the experiment. Mice were inoculated with 1.5×10^6 SW620 CC cells and divided randomly into respective experimental groups. In brief, cells were harvested, counted under the microscope, concentrated by centrifugation (5 min at 500G) and re-suspended in Hank's balanced salt solution (Biological Industries, Israel). Before inoculation the cell suspension was mixed with Martial (BD biosciences, USA) in 1:1 ratio. Four days post-inoculation mice were randomized and placed in cages (n=4 per cage). Mice were injected intra-peritonealy every 12 h for 22 days with 25 mg/kg or 50 mg/kg of the micellar and non-micellar 0260 formulations, and control mice—with empty micelles or vehicles. Mice were sacrificed at day 22, tissues from relevant organs were fixed in paraffin, sectioned (7 μm sections) and stained with Hematoxylin and Eosin stain (H&E stain) for future histopathological evaluation. Blood samples were drawn from sacrificed mice.
Mice were sacrificed at day 22 of the xenograft experiments, as described above. Tissues from relevant organs and tumors were fixed in paraffin, sectioned (7 μm sections) and stained with Hematoxylin and Eosin stain (H&E stain) for histopathological evaluation as previously described. Blood samples were drawn by cardiac puncture. […] The serum was analyzed immediately using the Cobas 6000-501 chemistry analyzer (Roche Diagnostics, USA) according to the manufacturer's protocols for each assay.

[3] = tested on: su.86.86 (pancreatic cancer cells derived from metastatic site-liver); experiment: Cytotoxicity dose response in su.86.86 cells; type: cell-based, human; details: 24 h, 48 h, 72 h
Procedure: (§2) Cell lines (HCT116, ht29, Rko, Hep3B, SW48, SW620, MDA-MB-231, PANC-1, su.86.86, Hfb) were obtained from the American Type Culture Collection (ATCC). Cell type authentication was carried out by microscope and DNA profiles using short tandem repeat analysis. Cells were grown in Minimum Essential Medium (MEM) containing 10% heat-inactivated Fetal Bovine Serum (FBS) or in Dulbecco's Modified Eagle's Medium (DMEM) containing 10% FBS, where specified, at 37° C. with 5% CO2. In general, the in-vitro experiments were carried out with 2. μM 0260 added into the growth medium. Dose response experiments included increasing 0260 concentrations. Cell death levels were determined using the MultiTox-Fluor Multiplex Cytotoxicity Assay (G9201, Promega, USA). In brief, 10,000 cells were seeded in black bottom 96 wells plate and were allowed to attach to the plate bottom for 16 h before the administration of various 0260 concentration in each well. Cell death levels were determined according to the manufacturer's protocol.
(§3) Cells death level was determined using the MultiTox-Fluor Multiplex Cytotoxicity Assay (G9201, Promega, USA) according to the manufacturer's protocol.

[4] = biological target: Fer (Homo sapiens, UniProt P16591); experiment: Fer autophosphorylation in RKO CC cells (IP/WB); type: cell-based; design: endogenous in cells; details: 24 h
Procedure: as §1
Protein lysates (1 mg) were prepared from tissues of adult mice according to previously described protocol, including incubation with Protein A Sepharose (GE Healthcare) to avoid nonspecific binding. Protein lysates were incubated with specific antibodies diluted 1:100 overnight at 4° C. Antigen-antibody complexes were precipitated with Protein A Sepharose, washed twice in PBS and eluted in Sample Buffer (2% SDS, 1% DTT 0.02% bromophenol blue 10% glycerol, 12.5 mM EDTA, 50 mM Tris-HCl pH 6.8) at room temperature for 10 min and at 100° C. for 8 min. Eluates were separated on SDS-PAGE and visualized by WB using specific antibodies.

[5] = tested on: SW620 CC cells; experiment: MultiTox-Fluor cytotoxicity assay in SW620 CC cells; type: cell-based, human; details: for cell death: 2 μM; for EC50: Homo sapiens, SW-620, read-out: EC50 (cell death)
Procedure: as §2, §3

[6] = tested on: HKII; experiment: Glycolysis enzyme levels in CC cells (WB, ICC); type: cell-based, human
Procedure: as §1
Cells were fixed with 4% paraformaldehyde (30 min) and incubated with Permeabilization Solution containing 0.1% Triton X-100 (Sigma-Aldrich, Israel) in PBS at room temperature for 1 h. Nonspecific binding was blocked with PBS containing 10% fetal bovine serum for 1 h at room temperature. Cells were incubated with specific antibodies diluted 1:100 overnight at 4° C. […] Bound primary antibodies were detected by Alexa Fluor® 488 goat anti-mouse IgG antibody or Alexa Fluor® 594 goat anti-rabbit IgG antibody (Molecular Probes, Invitrogen, U.K.). […] Nonspecific staining, as determined by binding to the secondary antibody only, was negligible. The immunostained slides were examined under the fluorescence microscope AxioimagerZ1 (Zeiss, Germany) or confocal fluorescence microscope (Olympus-FV1000).

[7] = tested on: normal human fibroblasts (Hfb); experiment: MultiTox-Fluor cytotoxicity assay in normal human fibroblasts; type: cell-based
Procedure: as §2, §3

[8] = tested on: triple negative breast carcinoma MDA-MB-231 (MDA); experiment: MultiTox-Fluor cytotoxicity assay in MDA-MB-231 cells; type: cell-based, human; details: 24-72 h
Procedure: as §2, §3

Chain of Fer (P16591 whole entry): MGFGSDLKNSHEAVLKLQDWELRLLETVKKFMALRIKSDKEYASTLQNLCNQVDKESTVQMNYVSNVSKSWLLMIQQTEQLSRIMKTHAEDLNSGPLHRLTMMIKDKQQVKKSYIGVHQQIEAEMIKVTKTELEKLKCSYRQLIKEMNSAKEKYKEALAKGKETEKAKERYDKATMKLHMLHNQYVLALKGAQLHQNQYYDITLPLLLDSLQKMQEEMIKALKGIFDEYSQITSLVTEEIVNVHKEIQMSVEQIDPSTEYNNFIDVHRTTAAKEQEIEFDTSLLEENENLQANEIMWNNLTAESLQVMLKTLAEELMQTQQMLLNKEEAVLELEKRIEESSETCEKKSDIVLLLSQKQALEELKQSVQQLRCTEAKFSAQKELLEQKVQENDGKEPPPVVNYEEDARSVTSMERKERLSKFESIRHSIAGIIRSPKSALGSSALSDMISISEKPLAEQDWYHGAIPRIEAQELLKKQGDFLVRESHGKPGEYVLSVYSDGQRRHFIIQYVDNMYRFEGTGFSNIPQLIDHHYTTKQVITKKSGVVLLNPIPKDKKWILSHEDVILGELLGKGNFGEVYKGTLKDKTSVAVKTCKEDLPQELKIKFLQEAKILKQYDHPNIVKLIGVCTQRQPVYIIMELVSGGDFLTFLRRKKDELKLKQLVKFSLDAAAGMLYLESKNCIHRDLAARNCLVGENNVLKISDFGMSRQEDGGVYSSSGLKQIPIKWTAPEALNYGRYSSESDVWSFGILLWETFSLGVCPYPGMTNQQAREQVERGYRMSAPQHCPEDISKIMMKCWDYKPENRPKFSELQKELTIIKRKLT

In the case of CC(C)c1ccc(-c2cn3nc(N4CCC(CN5CCN(C)CC5)CC4)sc3n2)cc1 [compound 0260, tartarate salt of 6-(4-isopropyl-phenyl)-2-{4-[(4-methyl-piperazin-1-yl)methyl]piperidin-1-yl}-imidazo [2,1-b][1,3,4]thiadiazole], the AMPK phosphorylation [1] is reported as “phosphorylated and activated”, the Akt phosphorylation [1] is reported as “decrease in the activating phosphorylation” and the “Raptor phosphorylation on serines 792 and 722” value [1] is reported as “inhibitory phosphorylation”. For the same molecule, the mTOR phosphorylation state [1] was “not changed”, the “toxic effects (blood markers of liver and kidney functions, blood electrolytes)” value ([2]; daily injection) was “did not cause any toxic effects or adverse side effects” and the “histopathology of heart, kidneys and liver” value ([2]; mouse, in vivo) was “failed to detect any abnormalities related to toxicity”. The “effect on animal's weight” value ([2]; xenograft experiments) was “no significant effect”, the “sensitivity of Su.86.86 relative to PANC-1 cells” value [3] was “more sensitive” and the “Fer autophosphorylation level in cells” value [4] was “inhibitory effect”. For the same molecule, the cell death ([5]; 24 h, metastatic CC (SW620), 1 gr/l glucose) was 100%, the cell death ([5]; 72 h, high glucose concentration) was 100% and the EC50 ([5]; SW620, 4.5 gr/1 glucose (DMEM)) was 5100 nM. For the same molecule, the EC50 ([5]; SW620, 24 h, micellar formulation, 1 gr/l glucose (MEM)) was 400 nM, the EC50 ([5]; SW620, 48 h, micellar formulation) was 300 nM and the “death at the highest dose” value ([5]; SW620, 4.5 gr/1 glucose (DMEM)) was 50%. The HKII level [6] was “down-regulation of HKII”, the “cell death / cytotoxic effect in normal fibroblasts” value ([7]; 24 h and 48 h, same conditions as SW620) was “no death was seen; also recorded: Almost no cytotoxic effect” and the “sensitivity of normal cells lower than SW620” value ([7]; Hfb 72 h vs SW620) was 50 fold. For the same molecule, the EC50 ([7]; Homo sapiens, Fibroblast, Hfb, 0-20 μM, 72 h) was 20000 nM and the “concentration efficient in inducing cell death” value [8] was at most 1.5 µM.
